# Legend:
# BRD3 BD1 = BRD3 BD1 (Homo sapiens, UniProt Q15059); experiment: Bromodomain Binding Assay; details: 10 μM Compound 074, read-out: Bromodomain Binding % of Control
# KAT2A = KAT2A (Homo sapiens, UniProt Q92830); experiment: Bromodomain Binding Assay; details: 10 μM Compound 074, read-out: Bromodomain Binding % of Control
# BPTF = BPTF (Homo sapiens, UniProt Q12830); experiment: Bromodomain Binding Assay; details: 10 μM Compound 074, read-out: Bromodomain Binding % of Control
# TAF1L BD2 = target: T1, TAF1L BD2 (Homo sapiens, UniProt Q8IZX4); experiment: Bromodomain Binding Assay; details: 10 μM Compound 074, read-out: Bromodomain Binding % of Control
# T1 construct: made in house; host or cells: T7 phage grown in E. coli host derived from BL21
# T1 sequence (Q8IZX4 1517-1626 limits assumed): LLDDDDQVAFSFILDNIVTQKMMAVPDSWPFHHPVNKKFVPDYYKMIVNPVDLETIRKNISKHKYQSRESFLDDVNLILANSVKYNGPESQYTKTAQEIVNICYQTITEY
# TAF1 BD2 = target: T2, TAF1 BD2 (Homo sapiens, UniProt P21675); experiment: Bromodomain Binding Assay; details: 10 μM Compound 074, read-out: Bromodomain Binding % of Control
# T2 construct: made in house; host or cells: T7 phage grown in E. coli host derived from BL21
# T2 sequence (P21675 1519-1628 limits assumed): as the sequence (Q8IZX4 1517-1626 limits assumed) above, with M46V, V51M, I102V, I107L counted along it
# ATAD2B = ATAD2B (Homo sapiens, UniProt Q9ULI0); experiment: Bromodomain Binding Assay; details: 10 μM Compound 074, read-out: Bromodomain Binding % of Control
# Sequence of ATAD2B (Q9ULI0 951-1066 limits assumed): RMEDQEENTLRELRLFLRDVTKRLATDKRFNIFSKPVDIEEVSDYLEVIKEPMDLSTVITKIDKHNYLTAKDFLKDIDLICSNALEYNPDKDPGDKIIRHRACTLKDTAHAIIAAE
# BAZ2A = BAZ2A (Homo sapiens, UniProt Q9UIF9); experiment: Bromodomain Binding Assay; details: 10 μM Compound 074, read-out: Bromodomain Binding % of Control
# Sequence of BAZ2A (Q9UIF9 1793-1897 limits assumed): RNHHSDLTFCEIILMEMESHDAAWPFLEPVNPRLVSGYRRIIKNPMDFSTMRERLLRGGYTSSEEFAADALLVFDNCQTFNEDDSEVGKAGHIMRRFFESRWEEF
# [1] = system: SU-DHL-4 diffuse large B-cell lymphoma xenograft; experiment: SU-DHL-4 DLBCL xenograft model in mice
# Procedure: 10 μL the cell proliferation reagent CCK-8 (WST-8) was added into each well and incubated at 37° C./5% CO2 for 3-4 hr and the absorbance at 450 nm measured with an En Vision Plate Reader.
# 5×10^6 MV-4-11 or 1×10^7 SU-DHL-4 cells were collected and re-suspended in 0.1 mL of serum-free media with Matrigel (1:1 v/v) per mouse for subcutaneous inoculation in isoflurane anesthetized male BALB/c nude or C.B-17 scid mice, respectively (treated in accordance with AAALAC animal welfare guidelines). When the average tumor volumes reached 100-200 mm^3, tumor volume outliers were removed and the remaining animals randomly divided into groups of 6-8 with similar average tumor volumes in each group. […] Animals were intravenously dosed at 25 mg/kg, 50 mg/kg or 100 mg/kg 1×/week for 3 or 4 weeks. The appearance and behavior of each mouse was observed and recorded daily. Body weights and tumor volumes were measured and recorded every 2-4 days and the results were expressed as group means±SEM. Pairwise statistical comparisons between groups were performed by one-way ANOVA, and p<0.05 was considered statistically significant.
# CECR2 = CECR2 (Homo sapiens, UniProt Q9BXF3); experiment: Bromodomain Binding Assay; details: 10 μM Compound 074, read-out: Bromodomain Binding % of Control
# Sequence of CECR2 (Q9BXF3 434-538 limits assumed): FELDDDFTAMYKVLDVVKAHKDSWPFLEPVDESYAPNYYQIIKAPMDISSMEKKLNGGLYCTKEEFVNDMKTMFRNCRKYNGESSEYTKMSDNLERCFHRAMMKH
# TRIM24 = target: T3, TRIM24 (Homo sapiens, UniProt O15164); experiment: Bromodomain Binding Assay; details: 10 μM Compound 074, read-out: Bromodomain Binding % of Control
# T3 construct: made in house; host or cells: T7 phage grown in E. coli host derived from BL21
# T3 sequence (O15164 899-1004 limits assumed): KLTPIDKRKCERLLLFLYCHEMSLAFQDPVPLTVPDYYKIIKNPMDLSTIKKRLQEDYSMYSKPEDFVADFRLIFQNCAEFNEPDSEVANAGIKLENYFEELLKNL
# CREBBP = CREBBP (Homo sapiens, UniProt Q92793); experiment: Bromodomain Binding Assay; details: 10 μM Compound 074, read-out: Bromodomain Binding % of Control
# Sequence of CREBBP (Q92793 1085-1192 limits assumed): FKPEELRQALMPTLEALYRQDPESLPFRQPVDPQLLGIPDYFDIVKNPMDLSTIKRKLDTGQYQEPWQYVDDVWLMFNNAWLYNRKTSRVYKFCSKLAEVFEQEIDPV
# HSP90 client proteins = experiment: HSP90 Client Protein Degradation Flow Cytometry Assay (summary over all clients); type: cell-based, human; details: ERBB2, IGF1R, EGFR and RAF1
# Procedure: MV4-11 cells were plated in a 24-well tissue culture plate at a density of 350,000 cells/450 μL/well and incubated in 37° C./5% CO2 for 1 hr. Cells were then treated with compounds at various concentrations and incubated in 37° C./5% CO2 for 24 hr. Cells were harvested, washed once, counted and 200 μL of 1% paraformaldehyde/PBS was added and incubated for 15 min at room temperature. 200 μL of 1×PBS/0.4% Triton X-100 was added and incubated for 15 min at 4° C. Cells were washed three times and resuspended in 50 μL of 1×PBS/0.2% Triton X-100. 2 μL/10^6 cells of anti-BRD4 antibody (ABCAM, #128874) was added and mixed by pipetting up and down. Cells were incubated for 30 min at room temperature in the dark, washed three times and resuspended in 50 μL of 1×PBS/0.2% Triton X-100. Goat anti-rabbit IgG H&L antibody (1:2000 dilution) was added and mixed by pipetting up and down and incubated for 30 min at room temperature in the dark. Finally, cells were washed three times and resuspended in 200 μL of PBS for flow cytometric analysis.
# Similar flow cytometry experiments for ERBB2 in BT-474 human breast carcinoma cells (ATCC, #HTB-20) and IGF1R, EGFR and RAF1 in HEK-293 human embryonic kidney (ATCC, #CRL-1573) were performed using anti-ERBB2 (R&D, #FAB1129P), anti-IGF1R (Cell Signaling Technology, #9750), anti-EGFR (Cell Signaling Technology, #139690) and anti-RAF1 (ABCAM, #ab181115) antibodies.
# BRD2 BD1 = BRD2 BD1 (Homo sapiens, UniProt P25440); experiment: Bromodomain Binding Assay; details: 10 μM Compound 074, read-out: Bromodomain Binding % of Control
# Sequence of BRD2 BD1 (P25440 74-180 limits assumed): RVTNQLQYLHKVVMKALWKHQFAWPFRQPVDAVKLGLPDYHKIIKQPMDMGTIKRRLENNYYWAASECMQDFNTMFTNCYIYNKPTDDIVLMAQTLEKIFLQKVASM
# BRD9 = BRD9 (Homo sapiens, UniProt Q9H8M2); experiment: Bromodomain Binding Assay; details: 10 μM Compound 074, read-out: Bromodomain Binding % of Control
# Sequence of BRD9 (Q9H8M2 136-240 limits assumed): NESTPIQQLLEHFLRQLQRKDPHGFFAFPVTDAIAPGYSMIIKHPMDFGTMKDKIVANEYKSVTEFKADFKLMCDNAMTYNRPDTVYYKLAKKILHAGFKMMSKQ
# PBRM1 BD2 = PBRM1 BD2 (Homo sapiens, UniProt Q86U86); experiment: Bromodomain Binding Assay; details: 10 μM Compound 074, read-out: Bromodomain Binding % of Control
# Sequence of PBRM1 BD2 (Q86U86 177-287 limits assumed): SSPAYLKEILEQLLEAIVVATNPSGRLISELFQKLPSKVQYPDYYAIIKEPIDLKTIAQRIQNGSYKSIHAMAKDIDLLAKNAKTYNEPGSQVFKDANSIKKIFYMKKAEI
# BRDT BD1 = BRDT BD1 (Homo sapiens, UniProt Q58F21); experiment: Bromodomain Binding Assay; details: 10 μM Compound 074, read-out: Bromodomain Binding % of Control
# BRD3 BD2 = BRD3 BD2 (Homo sapiens, UniProt Q15059); experiment: Bromodomain Binding Assay; details: 10 μM Compound 074, read-out: Bromodomain Binding % of Control
# Sequence of BRD3 BD2 (Q15059 306-415 limits assumed): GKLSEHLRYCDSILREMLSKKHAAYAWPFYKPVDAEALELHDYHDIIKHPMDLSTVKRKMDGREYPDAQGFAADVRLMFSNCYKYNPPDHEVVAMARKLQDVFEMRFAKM
# TRIM133 = target: T4, TRIM133 (Homo sapiens, UniProt Q9UPN9); experiment: Bromodomain Binding Assay; details: 10 μM Compound 074, read-out: Bromodomain Binding % of Control
# T4 construct: made in house; host or cells: T7 phage grown in E. coli host derived from BL21
# T4 sequence (Q9UPN9 957-1080 limits assumed): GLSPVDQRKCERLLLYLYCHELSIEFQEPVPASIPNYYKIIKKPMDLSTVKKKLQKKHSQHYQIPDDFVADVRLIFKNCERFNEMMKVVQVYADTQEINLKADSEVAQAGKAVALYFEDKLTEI
# BRD2 BD2 = BRD2 BD2 (Homo sapiens, UniProt P25440); experiment: Bromodomain Binding Assay; details: 10 μM Compound 074, read-out: Bromodomain Binding % of Control
# Sequence of BRD2 BD2 (P25440 344-453 limits assumed): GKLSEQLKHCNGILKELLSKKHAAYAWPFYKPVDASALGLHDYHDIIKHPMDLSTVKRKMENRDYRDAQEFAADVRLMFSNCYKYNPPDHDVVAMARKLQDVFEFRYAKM
# BRD4 BD2 = BRD4 BD2 (Homo sapiens, UniProt O60885); experiment: Bromodomain Binding Assay; details: 10 μM Compound 074, read-out: Bromodomain Binding % of Control
# BAZ2B = BAZ2B (Homo sapiens, UniProt Q9UIF8); experiment: Bromodomain Binding Assay; details: 10 μM Compound 074, read-out: Bromodomain Binding % of Control
# Sequence of BAZ2B (Q9UIF8 2060-2164 limits assumed): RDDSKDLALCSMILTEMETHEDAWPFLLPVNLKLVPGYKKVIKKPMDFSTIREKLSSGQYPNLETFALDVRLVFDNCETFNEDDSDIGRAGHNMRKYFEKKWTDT
# BRD7 = BRD7 (Homo sapiens, UniProt Q9NPI1); experiment: Bromodomain Binding Assay; details: 10 μM Compound 074, read-out: Bromodomain Binding % of Control
# Sequence of BRD7 (Q9NPI1 131-235 limits assumed): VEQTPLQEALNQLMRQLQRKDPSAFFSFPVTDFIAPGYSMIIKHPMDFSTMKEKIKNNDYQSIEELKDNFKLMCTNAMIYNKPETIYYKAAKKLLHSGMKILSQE
# KAT2B = target: T5, KAT2B (Homo sapiens, UniProt Q92831); experiment: Bromodomain Binding Assay; details: 10 μM Compound 074, read-out: Bromodomain Binding % of Control
# T5 construct: made in house; host or cells: T7 phage grown in E. coli host derived from BL21
# T5 sequence (Q92831 723-827 limits assumed): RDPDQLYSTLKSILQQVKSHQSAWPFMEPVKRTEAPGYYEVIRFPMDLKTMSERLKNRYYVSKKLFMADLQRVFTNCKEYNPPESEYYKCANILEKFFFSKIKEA
# SMARCA2 = target: T6, SMARCA2 (Homo sapiens, UniProt P51531); experiment: Bromodomain Binding Assay; details: 10 μM Compound 074, read-out: Bromodomain Binding % of Control
# T6 construct: made in house; host or cells: T7 phage grown in E. coli host derived from BL21
# T6 sequence (P51531 1378-1506 limits assumed): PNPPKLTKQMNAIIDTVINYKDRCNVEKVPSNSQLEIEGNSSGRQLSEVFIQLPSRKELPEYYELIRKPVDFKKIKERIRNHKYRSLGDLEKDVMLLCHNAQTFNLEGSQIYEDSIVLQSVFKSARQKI
# [2] = 100 mg/kg intravenous 1×/week, after 4 weeks of dosing
# Sequence of KAT2A (Q92830 728-832 limits assumed): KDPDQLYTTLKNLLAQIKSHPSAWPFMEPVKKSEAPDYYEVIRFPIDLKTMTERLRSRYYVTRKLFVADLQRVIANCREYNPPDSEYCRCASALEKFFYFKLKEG
# Sequence of BRD3 BD1 (Q15059 34-140 limits assumed): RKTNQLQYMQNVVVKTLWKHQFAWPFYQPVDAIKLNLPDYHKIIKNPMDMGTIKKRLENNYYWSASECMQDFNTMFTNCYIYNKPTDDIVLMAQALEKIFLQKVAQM
compound,measurement,setting,value
"Cc1sc2c(c1C)C(c1ccc(Cl)cc1)=N[C@@H](CC(=O)N1CCC(CN3CCN(Cc4ccc(-n5c(O)nnc5-c5cc(C(C)C)c(O)cc5O)cc4)CC3)CC1)c1nnc(C)n1-2.Cl [Compound 74, (S)-2-(4-(4-chlorophenyl)-2,3,9-trimethyl-6H-thieno[3,2-f][1,2,4]triazolo[4,3-a][1,4]diazepin-6-yl)-1-(4-((4-(4-(3-(2,4-dihydroxy-5-isopropylphenyl)-5-hydroxy-4H-1,2,4-triazol-4-yl)benzyl)piperazin-1-yl)methyl)piperidin-1-yl)ethan-1-one hydrochloride]",remaining activity at 10 µM,BRD3 BD1,< 10%
same,remaining activity at 10 µM,KAT2A,> 75%
same,remaining activity at 10 µM,BPTF,> 75%
same,remaining activity at 10 µM,TAF1L BD2,> 75%
same,remaining activity at 10 µM,TAF1 BD2,> 75%
same,remaining activity at 10 µM,ATAD2B,> 75%
same,remaining activity at 10 µM,BAZ2A,> 75%
same,tumor growth inhibition (FIG. 4a),[1]; [2],significant tumor growth inhibition
same,tumor vs control (T/C) value,[1]; [2],41%
same,animal deaths and body weights (FIG. 4b),"[1]; any dose level, SU-DHL-4 xenograft",No animal deaths or significant effects on body weights were observed
same,remaining activity at 10 µM,CECR2,> 75%
same,remaining activity at 10 µM,TRIM24,> 75%
same,remaining activity at 10 µM,CREBBP,> 75%
same,IC50,HSP90 client proteins,339 to 1060 nM
same,remaining activity at 10 µM,BRD2 BD1,< 10%
same,remaining activity at 10 µM,BRD9,> 75%
same,remaining activity at 10 µM,PBRM1 BD2,> 75%
same,remaining activity at 10 µM,BRDT BD1,< 10%
same,remaining activity at 10 µM,BRD3 BD2,< 10%
same,remaining activity at 10 µM,TRIM133,> 75%
same,remaining activity at 10 µM,BRD2 BD2,< 10%
same,remaining activity at 10 µM,BRD4 BD2,< 10%
same,remaining activity at 10 µM,BAZ2B,> 75%
same,remaining activity at 10 µM,BRD7,> 75%
same,remaining activity at 10 µM,KAT2B,> 75%
same,remaining activity at 10 µM,SMARCA2,> 75%

# — patent US12540143B2, “Methods and compositions for targeted protein degradation” (Ranok Therapeutics (Hangzhou) Co. Ltd., priority 2019, dated 2026)
